How the values were obtained:
[1] = biological target: human recombinant histamine H1 receptor (Homo sapiens, UniProt P35367); assay: Histamine H1 radioligand binding assay ([3H]Pyrilamine); conditions: compound at 1 μM, receptor expressed in CHO cells
Method: To evaluate in radioligand binding assays the activity of compounds of the invention, human recombinant histamine H1 receptor expressed in Chinese hamster ovary (CHO) cells (De Backer, M. D. et al., Biochem. Biophys. Res. Comm. 197(3):1601, 1993) in a modified Tris-HCl buffer (50 mM Tris-HCl, pH 7.4, 2 mM MgCl2, 100 mM NaCl, 250 mM Sucrose) was used. Compounds of the invention were incubated with 1.2 nM [^3H]Pyrilamine for 180 min at 25° C. Non-specific binding was estimated in the presence of 1 μM pyrilamine Receptor proteins were filtered and washed, the filters were then counted to determine [^3H]Pyrilamine specifically bound. Compounds were screened at 1 μM or lower, using 1% DMSO as vehicle. Biochemical assay results are presented as the percent inhibition of specific binding in Table 2.

[2] = biological target: T1, human recombinant adrenergic α1D receptor (Homo sapiens, UniProt P25100); assay: Adrenergic α1D radioligand binding assay ([3H]Prozosin); conditions: compound at 1 μM; 0.6 nM [3H]Prozosin; HEK-293 cells; read-out: Percent Inhibition of ligand binding, Adrenergic (1 μM) a1D
T1 construct: expressed in transfected cells; host or cells: human embryonic kidney (HEK-293) cells
T1 sequence (P25100 1-572): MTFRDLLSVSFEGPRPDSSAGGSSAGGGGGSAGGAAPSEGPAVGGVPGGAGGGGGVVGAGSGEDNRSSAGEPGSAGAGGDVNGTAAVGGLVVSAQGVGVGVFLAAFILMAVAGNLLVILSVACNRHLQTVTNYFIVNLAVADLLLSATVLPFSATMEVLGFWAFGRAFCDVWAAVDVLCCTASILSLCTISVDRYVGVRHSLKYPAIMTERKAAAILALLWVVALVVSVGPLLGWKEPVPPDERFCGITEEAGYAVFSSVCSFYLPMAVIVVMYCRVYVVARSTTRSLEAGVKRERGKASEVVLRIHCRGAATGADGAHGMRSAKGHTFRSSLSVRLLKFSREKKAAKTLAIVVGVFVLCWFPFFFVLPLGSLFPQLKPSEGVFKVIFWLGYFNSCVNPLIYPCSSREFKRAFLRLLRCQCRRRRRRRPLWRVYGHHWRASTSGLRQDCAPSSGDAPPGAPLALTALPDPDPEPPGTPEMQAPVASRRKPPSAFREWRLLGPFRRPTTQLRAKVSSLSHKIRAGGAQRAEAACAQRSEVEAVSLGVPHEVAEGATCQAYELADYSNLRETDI
Method: Compounds of invention were incubated with 0.6 nM [^3H]Prozosin for 60 min at 25° C. Non-specific binding was estimated in the presence of 10 μM phentolamine Receptor proteins were filtered and washed, the filters were then counted to determine [^3H]Prozosin specifically bound.

[3] = biological target: T2, human recombinant serotonin (5-Hydroxytryptamine) 5-HT2A receptor (Homo sapiens, UniProt P28223); assay: Serotonin 5-HT2A radioligand binding assay ([3H]Ketanserin); conditions: compound at 1 μM, 0.5 nM [3H]Ketanserin, CHO-K1 cells; for inhibition at 1 µM: read-out: Percent Inhibition of ligand binding, Serotonin (1 μM) 5-HT2A
T2 construct: expressed in transfected cells; host or cells: Chinese hamster ovary (CHO-K1) cells
T2 sequence (P28223 whole entry): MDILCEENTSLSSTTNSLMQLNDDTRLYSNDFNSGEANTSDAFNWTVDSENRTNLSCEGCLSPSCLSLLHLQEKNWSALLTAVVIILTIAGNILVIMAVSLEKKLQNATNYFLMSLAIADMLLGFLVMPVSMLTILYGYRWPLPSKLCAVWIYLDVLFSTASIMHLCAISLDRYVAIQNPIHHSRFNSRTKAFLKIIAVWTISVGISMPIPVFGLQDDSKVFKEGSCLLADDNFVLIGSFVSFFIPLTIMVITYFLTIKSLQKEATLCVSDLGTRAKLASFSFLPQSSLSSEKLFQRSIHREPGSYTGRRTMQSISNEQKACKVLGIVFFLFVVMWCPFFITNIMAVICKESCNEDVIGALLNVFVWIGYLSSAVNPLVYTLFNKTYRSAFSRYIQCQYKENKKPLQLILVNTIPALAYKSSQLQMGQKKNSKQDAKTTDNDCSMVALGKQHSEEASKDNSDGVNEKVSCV
Method: Compounds of the invention were incubated with 0.5 nM [^3H]Ketanserin for 60 min at 25° C. Non-specific binding was estimated in the presence of 1 μM Mianserin. Receptor proteins were filtered and washed, the filters were then counted to determine [^3H]Ketanserin specifically bound. Compounds were screened at 1 μM or lower, using 1% DMSO as vehicle. Biochemical assay results are presented as the percent inhibition of specific binding in Table 4.

[4] = biological target: T3, human recombinant serotonin (5-Hydroxytryptamine) 5-HT2C receptor (Homo sapiens, UniProt P28335); assay: Serotonin 5-HT2C radioligand binding assay ([3H]Mesulergine); conditions: compound at 1 μM; 1 nM [3H]Mesulergine; CHO-K1 cells
T3 construct: expressed in transfected cells; host or cells: Chinese hamster ovary (CHO-K1) cells
T3 sequence (P28335 33-458): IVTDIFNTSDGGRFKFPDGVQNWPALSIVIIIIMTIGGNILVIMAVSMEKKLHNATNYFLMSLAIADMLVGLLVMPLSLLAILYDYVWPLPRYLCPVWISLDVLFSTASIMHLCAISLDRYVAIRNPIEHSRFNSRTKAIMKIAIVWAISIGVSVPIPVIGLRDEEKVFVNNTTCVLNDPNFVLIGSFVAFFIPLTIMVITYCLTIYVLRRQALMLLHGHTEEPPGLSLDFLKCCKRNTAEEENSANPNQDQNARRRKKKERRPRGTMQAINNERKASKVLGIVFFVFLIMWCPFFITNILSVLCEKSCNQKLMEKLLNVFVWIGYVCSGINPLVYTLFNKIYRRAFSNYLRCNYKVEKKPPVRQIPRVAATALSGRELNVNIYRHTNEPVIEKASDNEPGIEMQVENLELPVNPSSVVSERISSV
Method: Compounds of the invention were incubated with 1 nM [^3H]Mesulergine for 60 min at 25° C. Non-specific binding was estimated in the presence of 1 μM Mianserin. Receptor proteins were filtered and washed, the filters were then counted to determine [^3H]Mesulergine specifically bound. Compounds were screened at 1 μM or lower, using 1% DMSO as vehicle. Biochemical assay results are presented as the percent inhibition of specific binding in Table 4.

[5] = biological target: T4, human recombinant serotonin (5-Hydroxytryptamine) 5-HT6 receptor (Homo sapiens, UniProt P50406); assay: Serotonin 5-HT6 radioligand binding assay ([3H]LSD); conditions: compound at 1 μM, HeLa cells
T4 construct: expressed in transfected cells; host or cells: human HeLa cells
T4 sequence (P50406 whole entry): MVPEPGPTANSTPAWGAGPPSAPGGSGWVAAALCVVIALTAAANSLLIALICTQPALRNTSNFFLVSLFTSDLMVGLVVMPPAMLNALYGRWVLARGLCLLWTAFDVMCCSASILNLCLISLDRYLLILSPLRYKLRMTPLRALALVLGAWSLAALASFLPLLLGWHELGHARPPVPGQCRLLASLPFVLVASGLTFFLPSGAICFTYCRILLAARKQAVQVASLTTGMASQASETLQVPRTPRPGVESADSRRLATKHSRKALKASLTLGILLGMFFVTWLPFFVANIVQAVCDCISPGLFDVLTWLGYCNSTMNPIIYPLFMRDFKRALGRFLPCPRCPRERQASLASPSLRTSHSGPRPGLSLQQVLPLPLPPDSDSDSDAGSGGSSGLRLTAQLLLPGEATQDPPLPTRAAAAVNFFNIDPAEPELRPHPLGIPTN
Method: Compounds of the invention were incubated with 1.5 nM [3H]Lysergic acid diethylamide (LSD) for 120 min at 37° C. […] Receptor proteins were filtered and washed, the filters were then counted to determine [3H]LSD specifically bound. Compounds were screened at 1 μM or lower, using 1% DMSO as vehicle. Biochemical assay results are presented as the percent inhibition of specific binding in Table 4.

[6] = biological target: human recombinant serotonin (5-Hydroxytryptamine) 5-HT7 receptor (Homo sapiens, UniProt P34969); assay: Serotonin 5-HT7 radioligand binding assay ([3H]LSD); conditions: compound at 1 μM; 5.5 nM [3H]LSD; CHO cells
human recombinant serotonin (5-Hydroxytryptamine) 5-HT7 receptor, sequence (P34969 whole entry): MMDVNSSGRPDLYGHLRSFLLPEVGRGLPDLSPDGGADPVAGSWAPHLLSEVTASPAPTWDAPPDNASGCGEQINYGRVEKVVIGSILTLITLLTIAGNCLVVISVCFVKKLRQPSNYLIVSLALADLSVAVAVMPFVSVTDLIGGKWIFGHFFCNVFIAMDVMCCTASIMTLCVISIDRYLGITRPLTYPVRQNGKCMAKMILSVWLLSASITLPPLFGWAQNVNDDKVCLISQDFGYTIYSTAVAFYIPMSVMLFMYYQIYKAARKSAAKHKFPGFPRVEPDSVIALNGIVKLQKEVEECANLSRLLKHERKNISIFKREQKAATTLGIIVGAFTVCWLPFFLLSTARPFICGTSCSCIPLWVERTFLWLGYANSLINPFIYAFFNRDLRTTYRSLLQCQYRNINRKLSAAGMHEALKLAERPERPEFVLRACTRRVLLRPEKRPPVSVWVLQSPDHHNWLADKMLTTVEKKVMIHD
Method: Compounds of invention were incubated with 5.5 nM [^3H] Lysergic acid diethylamide (LSD) for 2 h at 25° C. […] Receptor proteins were filtered and washed, the filters were then counted to determine [^3H]LSD specifically bound. Compounds were screened at 1 μM or lower, using 1% DMSO as vehicle. Biochemical assay results are presented as the percent inhibition of specific binding in Table 4.

[7] = biological target: T5, human recombinant adrenergic α2A receptor (Homo sapiens, UniProt P08913); assay: Adrenergic α2A radioligand binding assay ([3H]MK-912); conditions: compound at 1 μM, 1 nM [3H]MK-912, insect Sf9 cells
T5 construct: expressed in transfected cells; host or cells: insect Sf9 cells
T5 sequence (P08913 1-465): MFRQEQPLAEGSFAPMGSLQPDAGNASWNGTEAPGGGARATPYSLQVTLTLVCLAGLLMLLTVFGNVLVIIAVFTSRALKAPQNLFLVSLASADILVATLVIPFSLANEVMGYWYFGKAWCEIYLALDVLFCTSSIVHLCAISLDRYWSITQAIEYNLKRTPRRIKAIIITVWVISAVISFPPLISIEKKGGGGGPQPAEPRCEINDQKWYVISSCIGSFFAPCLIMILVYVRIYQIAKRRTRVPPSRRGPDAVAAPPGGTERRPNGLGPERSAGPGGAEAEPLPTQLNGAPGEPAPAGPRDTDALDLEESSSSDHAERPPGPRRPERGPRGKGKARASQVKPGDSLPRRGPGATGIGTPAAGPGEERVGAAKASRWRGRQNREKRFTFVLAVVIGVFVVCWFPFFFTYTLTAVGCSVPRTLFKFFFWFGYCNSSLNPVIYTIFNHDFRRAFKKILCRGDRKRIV
Method: To evaluate in radioligand binding assays the activity of compounds of the invention, human recombinant adrenergic α2A receptor expressed in insect Sf9 cells (Uhlen S et al. J. Pharmacol. Exp. Ther. 271:1558, 1994) in a modified Tris-HCl buffer (50 mM Tris-HCl, pH 7.4, 12.5 mM MgCl2, 2 mM EDTA) was used. Compounds of invention were incubated with 1 nM [^3H]MK-912 for 60 min at 25° C. MK912 is (2S-trans)-1,3,4,5′,6,6′,7,12b-octahydro-1′,3′-dimethyl-spiro[2H-benzofuro[2,3-a]quinolizine-2,4′(1′H)-pyrimidin]-2′(3′H)-one hydrochloride Non-specific binding was estimated in the presence of 10 μM WB-4101 (2-(2,6-dimethoxyphenoxyethyl)aminomethyl-1,4-benzodioxane hydrochloride). Receptor proteins were filtered and washed, the filters were then counted to determine [^3H]MK-912 specifically bound.

human recombinant histamine H1 receptor, sequence (P35367 whole entry): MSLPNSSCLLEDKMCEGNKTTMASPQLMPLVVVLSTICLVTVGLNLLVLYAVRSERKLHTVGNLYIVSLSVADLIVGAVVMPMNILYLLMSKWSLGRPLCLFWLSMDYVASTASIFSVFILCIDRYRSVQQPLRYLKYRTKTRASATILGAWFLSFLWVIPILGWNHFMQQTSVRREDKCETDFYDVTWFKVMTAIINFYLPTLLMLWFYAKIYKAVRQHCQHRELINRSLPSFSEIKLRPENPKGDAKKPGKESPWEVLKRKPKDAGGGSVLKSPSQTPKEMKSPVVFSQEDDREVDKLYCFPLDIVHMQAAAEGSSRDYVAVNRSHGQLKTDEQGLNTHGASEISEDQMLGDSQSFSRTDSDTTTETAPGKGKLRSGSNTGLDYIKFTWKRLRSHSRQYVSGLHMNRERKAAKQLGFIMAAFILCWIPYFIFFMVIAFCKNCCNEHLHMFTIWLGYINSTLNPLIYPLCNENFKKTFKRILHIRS

| SMILES | Binding Data (% Inhibition) Histamine Binding (1μM) H1 [1] [%] | inhibition at 1 µM [2] [%] | Percent Inhibition of ligand binding, Serotonin (1 μM) 5-HT2A [3] [%] | inhibition at 1 µM [3] [%] | Percent Inhibition of ligand binding, Serotonin (1 μM) 5-HT2C [4] [%] | Percent Inhibition of ligand binding, Serotonin (1 μM) 5-HT6 [5] [%] | Percent Inhibition of ligand binding, Serotonin (1 μM) 5-HT7 [6] [%] | inhibition at 1 µM ([7]; read-out: Percent Inhibition of ligand binding, Adrenergic (1 μM) a2A) [%] | Percent Inhibition of ligand binding, Adrenergic (1 μM) a2A [7] [%] |
| --- | --- | --- | --- | --- | --- | --- | --- | --- | --- |
| COc1ccc(C(C)(O)Cn2c3c(c4cc(C)ccc42)CN(C)CC3)cc1 (centres unmarked) [Compound 1-4, 1-(2,8-dimethyl-3,4-dihydro-1H-pyrido[4,3-b]indol-5(2H)-yl)-2-(4-methoxyphenyl)propan-2-ol] | 43 | 57 | 100 | 97 | 98 | 87 | 98 |  |  |
| CCCCC(O)(Cn1c2c(c3cc(Cl)ccc31)CN(C)CC2)c1ccc(F)cc1 (centres unmarked) [Compound 1-7, 1-(8-chloro-2-methyl-3,4-dihydro-1H-pyrido[4,3-b]indol-5(2H)-yl)-2-(4-fluorophenyl)hexan-2-ol] |  |  |  | 98 |  |  |  | 88 |  |
| CCCCC(O)(Cn1c2c(c3cc(Cl)ccc31)CN(C)CC2)c1ccc(F)cc1 (centres unmarked) [Compound 1-64, 1-(8-chloro-2-methyl-3,4-dihydro-1H-pyrido[4,3-b]indol-5(2H)-yl)-2-(4-fluorophenyl)hexan-2-ol] |  |  | 98 |  |  |  |  |  | 88 |

Source: patent publication US9255094B2, “Pyrido[4,3-B]indoles and methods of use” (Medivation Technologies, Inc., priority 2009, dated 2016)
